What was measured:
[1] = test system: Substrate oligonucleotide SEQ ID NO:30; experiment: RNase testing of commercially obtained reagents, visual detection; assay type: biochemical; design: key: +++ = maximum intensity; ++ = moderate intensity; + = faint but above background; − = negative (identical to background); settings: reagent diluted 1:10 with Assay Buffer, 50 pmoles Substrate SEQ ID NO:30, 60 minutes at 37° C., UV
Description: Enzymes were obtained from New England Biolabs (NEB) or Ambion as indicated. Test sample (10 ul) was mixed with 1× buffer (90 ul) for a final volume of 100 ul with 50 pmoles of Substrate SEQ ID NO:30 in 0.5 ml RNase-free microtubes. Assay Mixes were incubated 60 minutes at 37° C. and visually examined under UV excitation for fluorescence emission. After scoring for results, 1 ul (1 ug) of RNase A was added to each tube. The Assay was incubated an additional 5 minutes at 37° C. and re-scored. The addition of RNase A represents a control for the absence of an Assay inhibitor and validates negative results. The “plus RNase A” control was omitted whenever the primary assay was already positive.
Table 9: RNase testing of commercially available reagents. A series of commercially available reagents were diluted 1:10 with Assay Buffer to a final volume of 100 ul. An RNase detection assay was performed using the method of the invention with Substrate oligonucleotide SEQ ID NO:30. Reactions were examined for fluorescence emission by visual inspection using an ultraviolet (UV) light source for excitation. Results were scored as +++, ++, +, or − based on relative signal intensity. As a control, RNase A (1 ug) was added to negative reactions and the Assay was re-scored. ND=not done.

RNase A = target: T1, RNase A (Bos taurus, UniProt P61823); experiment: Fluorometric detection nuclease assay, RNase A; assay type: biochemical, mammalian; settings: RNase A 0.33 ug/ml; Substrate 50 nM; 37° C. 1 hour; 490 nm excitation
T1 sequence (P61823 27-150): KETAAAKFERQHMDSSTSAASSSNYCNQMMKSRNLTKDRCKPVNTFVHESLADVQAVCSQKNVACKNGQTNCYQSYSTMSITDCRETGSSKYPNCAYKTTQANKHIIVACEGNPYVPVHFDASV
Description: (§1) Nuclease assays were conducted using the method of the invention. SEQ ID NO:2 and SEQ ID NO:3 oligonucleotides were individually mixed in 1× Assay Buffer at a concentration of 50 nM (150 pmoles oligonucleotide in 3 mls volume). […] Assays were set up directly in cuvettes as follows:
(§2) Assay Mixes were incubated at 37° C. for 1 hour. Fluorescence emission spectra were measured using a PTI fluorometer with 490 nm excitation. Substrate SEQ ID NO:2 (having chimeric RNA-DNA composition) reacted with both DNase I (undesired) and RNase A (desired).
Nuclease assays were conducted using the method of the invention. The Substrate (SEQ ID NO:30) was mixed in 1× Assay Buffer at a concentration of 50 nM (150 pmoles oligonucleotide in 3 mls volume). Test nucleases were added to respective Assay Mixes, including 1 ul of RNase A (1 ug), 1 ul of RNase 1 (100 units), or 1 ul of RNase T1 (1000 units). […] Assays were set up directly in cuvettes as follows:
Assay Mixes were incubated at 37° C. for 1 hour. Assays were transferred to cuvettes and fluorescence emission at 520 nm was measured using a PTI fluorometer with 490 nm excitation. Substrate SEQ ID NO:30, a preferred Substrate of the invention, reacted with (i.e., detected) all three RNase enzymes, verifying that Substrate compositions of the invention are sensitive to a variety of RNase enzymes.
Substrate SEQ ID NO:30 was mixed in 1× Assay Buffer at a concentration of 50 nM (150 pmoles oligonucleotide in 3 mls volume). RNase A was added at final concentrations of 10 ng/ml, 2 ng/ml, 1 ng/ml, and 0.4 ng/ml. […] Assay mixes were incubated at 37° C. in a cuvette directly in a PTI fluorometer. Fluorescence emission at 520 nm with 490 nm excitation was measured over time. At high nuclease concentrations, the reaction goes rapidly to completion. At lower nuclease concentrations, the reaction rate decreases but with longer incubation times an easily detectable signal is generated. Substrate concentration is fixed and input enzyme (i.e., the test sample) varies. Since the background is stable (monitored in the control reaction), use of extended incubation periods will increase the sensitivity of the assay.
Assays were conducted using the method of the invention with fluorometric detection. Substrate SEQ ID NO:30 was mixed in 1× Assay Buffer at a concentration of 50 nM (50 pmoles ODN in 1.0 ml volume) in RNase-free disposable cuvettes. […] Dilutions of stock RNase A, RNase 1, and RNase T1 were made in water. Undiluted and diluted nuclease (1 ul) was added to respective 1.0 ml Assay Mixes resulting in final dilution factors of 10^−3, 10^−4, 10^−5, 10^−6, 10^−7, 10^−8, and 10^−9. Assays were incubated at 37° C. for 1 hour and examined for fluorescence emission at 520 nm using 490 nm excitation in a PTI fluorometer. Final enzyme concentration reported notes the lowest concentration tested that was reproducibly positive with a signal:noise ratio of at least 2:1.

Ribonuclease T1 = target: T2, Ribonuclease T1 (Aspergillus oryzae, UniProt P00651); experiment: Visual detection ribonuclease assay, cleavage of Substrate ODN by RNase T1; assay type: biochemical; design: key to Sensitivity of Substrate ODN to Ribonuclease T1, relative signal intensity: +++ = maximum intensity; ++ = moderate intensity; + = faint but above background; − = negative (identical to background); settings: visual inspection, UV excitation, Substrate 500 nM, 37° C. 60 minutes
T2 sequence (P00651 27-130): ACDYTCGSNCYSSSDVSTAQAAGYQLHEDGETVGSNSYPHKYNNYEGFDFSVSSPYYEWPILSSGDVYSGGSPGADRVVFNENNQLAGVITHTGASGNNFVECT
Description: (§3) Nuclease assays were conducted using the method of the invention with both visual and fluorometric detection methods. Substrates were individually mixed in 1× Assay Buffer at a concentration of 50 nM (50 pmoles oligonucleotide in 1 ml volume) for fluorometric detection or at a concentration of 500 nM (50 pmoles of oligonucleotide in 100 ul volume) for visual detection. Test nucleases were added to respective Assay Mixes beginning at 1 ul stock reagent and proceeding with a 1:10 serial dilution until undetectable. Reaction mixes were incubated at 37° C. for 60 minutes. Fluorometric detection was performed as outlined in Example 2. Visual detection was performed as outlined in Example 1.
(§4) Table 7: Sensitivity of different Substrate ODNs to Ribonuclease T1. A series of Substrate ODNs were synthesized and tested for sensitivity to RNase T1 degradation. Stock enzyme was serial diluted to achieve final concentrations of 0.001 units/ml, 0.0001 units/ml, and 0.00001 units/ml as indicated. Reactions were examined for fluorescence emission by visual inspection using an ultraviolet (UV) light source for excitation. Results were scored as +++, ++, +, or − based on relative signal intensity.
(§5) It is commonly accepted that fluorometry provides for high sensitivity. To be useful, the visual method must also offer high sensitivity. Assays were conducted using the method of the invention with visual detection. Substrate SEQ ID NO:30 was mixed in 1× Assay Buffer at a concentration of 500 nM (50 pmoles ODN in 100 ul volume) in thin-walled, UV transparent tubes. […] Dilutions of stock RNase A, RNase 1, and RNase T1 were made in water. Undiluted and diluted nuclease (1 ul) was added to respective 100 ul Assay Mixes resulting in final dilution factors of 10^−2, 10^−3, 10^−4, 10^−5, 10^−6, and 10^−7. Assays were incubated at room temperature for 10 minutes and visually examined for fluorescence emission with UV excitation. […] The experiment took about 30 minutes to perform, including 15 minutes to set-up serial dilutions, 10 minutes incubation, and 5 minutes to visualize and photograph. Thus the method of the invention allows for a rapid, simple, and convenient visual assay for the presence of ribonuclease activity.

DNase I = DNase I (Bos taurus, UniProt P00639); experiment: Fluorometric detection nuclease assay, DNase I (nuclease specificity); assay type: biochemical; settings: DNase I 2 units/ml; Substrate 50 nM; 37° C. 1 hour; 490 nm excitation
Sequence of DNase I (P00639 23-282): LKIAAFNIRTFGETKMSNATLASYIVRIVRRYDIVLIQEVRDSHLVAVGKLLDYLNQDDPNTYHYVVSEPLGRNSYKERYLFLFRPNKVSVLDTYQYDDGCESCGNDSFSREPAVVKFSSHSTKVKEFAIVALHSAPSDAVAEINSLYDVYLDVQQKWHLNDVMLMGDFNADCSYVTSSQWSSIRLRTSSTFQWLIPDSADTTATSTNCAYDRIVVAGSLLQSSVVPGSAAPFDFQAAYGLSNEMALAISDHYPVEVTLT
Description: as §1, §2

Ribonuclease A = target: T3, Ribonuclease A (Bos taurus, UniProt P61823); experiment: Visual detection ribonuclease assay, cleavage of Substrate ODN by RNase A; assay type: biochemical, mammalian; design: key to Sensitivity of Substrate ODN to Ribonuclease A, relative signal intensity: +++ = maximum intensity; ++ = moderate intensity; + = faint but above background; − = negative (identical to background); settings: Substrate 500 nM; for Sensitivity of Substrate ODN to Ribonuclease A, relative signal intensity: visual inspection, UV excitation, 37° C. 60 minutes
T3 sequence (P61823 27-150): T1 sequence (P61823 27-150)
Description: Nuclease assays were conducted using the methods of the invention. SEQ ID NO:2 and SEQ ID NO:30 oligonucleotides were individually mixed in 1× Assay Buffer at a concentration of 500 nM (50 pmoles ODN in 100 ul volume) in thin-walled, UV transparent microtubes. RNase A (1 ul, diluted to 0;1 ug/ul) was added to the respective Assay Mixes. […] Assays were set up directly in microtubes as follows:
Assay Mixes were incubated at room temperature for 10 minutes. Assays were visually examined for fluorescence emission directly in the assay tubes without further manipulation. Tubes were suspended above an ultraviolet light source, visually inspected, and photographed using a digital camera. […] The “positive” and “control” reactions appeared markedly different and were easily distinguished. […] The “positive” and “control” reactions were not markedly different to visual inspection.
as §3
as §4, with “6:” for “7:”, “A.” for “T1.”, “A” for “T1”, “1 ng/ml, 100 pg/ml,” for “0.001 units/ml, 0.0001 units/ml,”, “10 pg/ml” for “0.00001 units/ml”
as §5

T7 RNA Polymerase: commercial enzyme reagent from Ambion, sold as RNase-free
Assay Results (RNase activity in reagent, relative signal intensity) [1]: −

Super Taq: commercial enzyme reagent from Ambion, sold as RNase-free
Assay Results (RNase activity in reagent, relative signal intensity) [1]: −

5′ Fluorescein-AAuAA-Dabcyl 3′ (NAAUAAN; 5' fluorescein and 3' Dabcyl labels, nucleotide chemistry not given here) [SEQ ID NO:3]
Reactivity with RNase A (fluorometer) (RNase A): retained reactivity | Sensitivity of Substrate ODN to Ribonuclease T1, relative signal intensity (Ribonuclease T1; RNase T1 10^−3 units/ml): − | Sensitivity of Substrate ODN to Ribonuclease T1, relative signal intensity (Ribonuclease T1; RNase T1 10^−4 units/ml): − | Sensitivity of Substrate ODN to Ribonuclease T1, relative signal intensity (Ribonuclease T1; RNase T1 10^−5 units/ml): − | Reactivity with DNase I (fluorescence emission spectra) (DNase I): did not react | Sensitivity of Substrate ODN to Ribonuclease A, relative signal intensity (Ribonuclease A; RNase A 10 pg/ml): − | Sensitivity of Substrate ODN to Ribonuclease A, relative signal intensity (Ribonuclease A; RNase A 100 pg/ml): + | Sensitivity of Substrate ODN to Ribonuclease A, relative signal intensity (Ribonuclease A; RNase A 1 ng/ml): ++

Hind III: commercial enzyme from New England Biolabs, sold as RNase-free
Assay Results (RNase activity in reagent, relative signal intensity) [1]: −

5′ Fluorescein-AuAA-Tamra 3′ (NAUAAN; 5' fluorescein and 3' TAMRA labels, nucleotide chemistry not given here) [SEQ ID NO:2, reference compound]
Reactivity with RNase A (fluorometer) (RNase A): reacted | Reactivity with DNase I (fluorescence emission spectra) (DNase I): reacted | Fluorescence emission by visual inspection in the presence of RNase (Ribonuclease A; RNase A 1.0 ug/ml, room temperature 10 minutes, UV light source): changed somewhat in color and slightly increased in intensity | Fluorescence emission by visual inspection in the absence of RNase (control reaction) (Ribonuclease A; no nuclease, room temperature 10 minutes, UV light source): emitted light

Source: patent US7276337B2, “Compositions and methods for visual ribonuclease detection assays” (Integrated DNA Technologies, Inc., priority 2000, dated 2007)
